Test system: CD8+ T cells
Test: In vitro immunogenicity: priming of CD8+ T cells with peptide-MHC/anti-CD28 coated beads (aAPC), tetramer readout
Type: cell-based, human
Settings: CD8+ T cells of healthy HLA-A*02+ donors, three stimulation cycles with high density beads; positive well: at least 1% specific tetramer+ among CD8+ T cells and at least 10x median of negative controls
Description: To perform in vitro stimulations by artificial antigen presenting cells (aAPC) loaded with peptide-MHC complex (pMHC) and anti-CD28 antibody, PBMCs (peripheral blood mononuclear cells) were isolated from fresh HLA-A*02+ buffy coats by using standard density gradient separation medium (PAA, Cölbe, Germany). Buffy coats were obtained from the Katharinenhospital Stuttgart. Isolated PBMCs were incubated overnight in T-cell medium (TCM) for human in vitro priming consisting of RPMI-Glutamax (Invitrogen, Karlsruhe, Germany) supplemented with 10% heat inactivated human AB serum (PAA, Cölbe, Germany), 100 U/ml Penicillin/100 μg/ml Streptomycin (Cambrex, Verviers, Belgium), 1 mM sodium pyruvate (CC Pro, Neustadt, Germany) and 20 μg/ml Gentamycin (Cambrex). CD8+ lymphocytes were isolated using the CD8+ MACS positive selection kit (Miltenyi, Bergisch Gladbach, Germany) according to the manufacturer's instructions. Obtained CD8+ T cells were incubated until use in TCM supplemented with 2.5 ng/ml IL-7 (PromoCell, Heidelberg, Germany) and 10 U/ml IL-2 (Chiron, Munich, Germany). Generation of pMHC/anti-CD28 coated beads, T-cell stimulations and readout was performed as described before (Walter et al., 2003) with minor modifications. Briefly, biotinylated recombinant HLA-A*0201 molecules lacking the transmembrane domain and biotinylated at the carboxy terminus of the heavy chain were produced following a method described by Altman et al., 1996). The purified costimulatory mouse IgG2a anti human CD28 Ab 9.3 (Jung et al., 1987) was chemically biotinylated using Sulfo-N-hydroxysuccinimidobiotin as recommended by the manufacturer (Perbio, Bonn, Germany). 5.60 μm large streptavidin coated polystyrene particles beads were used (Bangs Laboratories, Illinois/USA). pMHC was used as positive and negative controls were A*0201/MLA-001 (peptide […] from modified Melan-A/MART-1) and A*0201/DDX5-001 ([…] from DDX5), respectively.
800,000 beads/200 μl were coated in 96-well plates in the presence of 600 ng biotin anti-CD28 plus 200 ng relevant biotin-pMHC (high density beads) or 2 ng relevant plus 200 ng irrelevant (pMHC library) MHC (low density beads). Stimulations were initiated in 96-well plates by conincubating 1×10^6 CD8+ T cells with 2×10^5 washed coated beads in 200 μl TCM supplemented with 5 ng/ml IL-12 (PromoCell) for 3-4 days at 37° C. Half of the medium was then exchanged by fresh TCM supplemented with 80 U/ml IL-2 and incubating was continued for 3-4 days at 37° C. This stimulation cycle was performed for a total of three times. Finally, tetrameric analyses were performed with fluorescent MHC tetramers (produced as described by (Altman et al., 1996)) plus antibody CD8-FITC clone SK1 (BD, Heidelberg, Germany) on a FACSCalibur or a LSR II flow cytometer (BD). Peptide specific cells were calculated as percentage of total CD8+ T cells. Evaluation of tetrameric analysis was performed using the software FCS Express (De Novo Software). In vitro priming of specific tetramer+ CD8+ lymphocytes was detected by appropriate gating and by comparing to negative control stimulations.
Results shown have been obtained by stimulation of CD8+ cells with high density beads. As different human serum lots may highly affect the immunogenicity results, only assays in which one and the same serum lot was used, were evaluated together.

Row | Sequence | Immunogenicity detected
1 | AIIDGVESV (listed as Homo sapiens) [PTP-003, PTPRZ1-derived tumor associated peptide, HLA A*02] | Yes
2 | ALTTLMHQL (listed as Homo sapiens) [PTP-001, PTPRZ1-derived tumor associated peptide, HLA A*0205] | Yes
3 | FLLPDTDGL (listed as Homo sapiens) [PTP-004, PTPRZ1-derived tumor associated peptide, HLA A*02] | Yes
4 | FLYKVILSL (listed as Homo sapiens) [PTP-002, PTPRZ1-derived tumor associated peptide, HLA A*02] | Yes
5 | KVFAGIPTV (listed as Homo sapiens) [PTP-005, PTPRZ1-derived tumor associated peptide, HLA A*02] | Yes
6 | SLWAGVVVL (listed as Homo sapiens) [CHI-001, CHI3L2-derived tumor associated peptide, HLA A*02] | Yes
